Results: patent US7524503B2, “Human cytomegalovirus (HCMV) cytotoxic T cell epitopes, polyepitopes compositions comprising same and diagnostic and prophylactic and therapeutic uses therefor” (priority 2001, dated 2009)
Several values for one entry are separate records, joined by “and”; a condition that tells them apart may be missing. Equal entries are not always repeated. Where two headings read alike, the source gives them in different places.

Tests used:
[1] = tested on: PBMC from healthy HCMV seropositive donors; assay: IFN-γ ELISPOT assay; format: cell-based, human; details: peptide 10 μg/ml
How it was run: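 PBMC from healthy HCMV-seropositive donors (2.5×10^5 cells/well) were stimulated 18 h at 37° C with individual synthetic HCMV peptides (10 μg/ml) on anti-IFN-γ-coated nitrocellulose. IFN-γ spots were developed with biotinylated antibody and streptavidin-alkaline phosphatase and counted automatically. Counts were averaged over 3 wells, and no-peptide wells were subtracted.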

[2] = tested on: peptide-sensitized autologous PHA blasts or LCLs; format: cell-based, human; set-up: key to CTL response: Y: Yes; ND: Not detected
CD4+ T cells = assay: CD4+/CD8+ analysis of 20-mer peptides (intracellular IFN-γ staining or depletion ELISPOT); format: cell-based, human
Method: (§1) To determine whether a particular 20-mer peptide contained either a CD4^+- or CD8^+-restricted epitope, or both, CD4^+/CD8^+ cell depletion ELISPOT assays were performed on PBMC from healthy virus carriers. For any one experiment, three populations of cells were used: a) CD8^+-depleted PBMC, b) CD4^+-depleted PBMC, and c) non-depleted PBMC. These populations of cells were tested concurrently with the same peptides in a conventional ELISPOT assay as described herein above. DYNABEADS M-450 (Dynal, Oslo, Norway) that bound specifically to CD4^+- or CD8^+ cells were used to perform the depletion essentially according to manufacturers instructions. Beads were washed twice in cold PBS supplemented with 2% FCS using magnetic isolation. The requisite number of cells was resuspended in cold PBS supplemented with 2% FCS, added to the beads and then incubated at 4° C., in the dark, for 30 mins (CD8^+ beads) or 60 mins (CD4^+ beads). Populations were depleted of CD4^+ or CD8^+ cells using magnetic separation. After depletion, the non-attached cells were removed and washed once in growth medium, counted and used in conventional ELISPOT assay. Depleted cells were used at 1.7×10^5 cells per well and the non-depleted population was used at the standard 2.5×10^5 cells per well. After the depletion step, each respective cell population was assessed for the purity of CD4^+ and CD8^+ T cells by three-colour flow cytometry. Samples of depleted cell populations were stained with anti-CD3 antibody directly conjugated to fluorescein isothiocyanate (FITC), anti-CD4 antibody conjugated with phycoerythrin (PE) fluorochrome, and anti-CD8 antibody conjugated with Tricolor fluorochrome (described below). The percent of CD3^+/CD4^+ cells present within the CD8^+-depleted population and the percent of CD3^+/CD8^+ cells present within the CD4^+-depleted populations were assessed on FACSCalibur cytometer (Becton Dickinson). The purity of each population was greater than 90% and the results from the ELISPOT assays are expressed as the percentage of CD4+ or CD8^+ cells within the depleted populations that responded toward each peptide by producing IFN-γ.
(§2) PBMCs were incubated at 37° C. in RPMI+10% FCS with and without 10 μg/ml peptides for 6 hours. Golgiplug™ (Pharmingen, San Diego, Calif., USA) was added to the samples according to manufacturer's instructions during the second hour of incubation and cells activated with 25 ng/ml phorbol 12-myristidate 13-acetate (PMA; Sigma-Aldrich Co, St. Louis Mo.) and 1 μg/ml iomomycin (Sigma) acted as a positive control. Following the incubation, 1×10^6 cells/sample were washed and resuspended in staining buffer consisting of PBS with GolgiPlug™, 3% FCS and sodium azide. Cells were then stained with FITC conjugated anti-CD3-FITC (UCHT1, Immunotech, Marseille, France), and either Tricolor (TRI) conjugated anti-CD4 (S3.5, Caltag, Burlingame, Calif.) or anti-CD8 (3B5, Caltag) for 30 minutes, 4° C. in the dark. The cells were fixed for 20 min at 4° C. with Cytofix/Cytoperm™ (BD Biosciences) and resuspended in Perm/Wash™ permeabilization buffer (BD Biosciences) according to manufacturers protocol. Fixed cells were stained with phycoerythrin (PE) conjugated anti-human IFN-γ (B27, Pharmingen) for 30 min at 4° C. in the dark. As a negative control, cells were stained with appropriate isotype matched control antibodies. Cells were washed twice in permeabilization buffer and resuspended in staining buffer before analysis by three-colour flow cytometry on a FACSCalibur cytometer (BD Biosciences). All data analysis was carried out using FlowJo software (Tree Star, Inc. San Carlos, CA).
(§3) When using 20-mer peptides to map epitopes by ELISPOT, it is possible that some responses may be MHC class-II restricted, and not necessarily restricted through HLA class I alleles. It was evident throughout this study that some epitopes identified using ELISPOT could not be confirmed using cytotoxicity analysis. […]

CD8+ T cells = assay: as above; format: cell-based, human
Method: as §1, §2, §3

HLA A2 = target: T1, HLA A2 (Homo sapiens, UniProt P04439, D140Y/D185E/D98H/E176V/E277Q/G131W/G231S/I119V/I121R/I166T/I218V/L300P/L318F/N151K/N90K/P208A/P217A/Q86G/Q94H/R138H/R169H/T345S); format: cell-based; details: HLA A2 on T2 cells; relative increase in HLA expression vs no peptide at 26° C.
T1 construct: endogenous in cells; host or cells: T2 cells

[3] = overlapping 20mer peptides, Table 4

ATVQGQNLKYQEFFWDANDI
ELISPOT Responses (SFC/10^6 PBMC) ([1]; donor epsilon): SC(687) SFC/10^6 PBMC
ELISPOT Responses (SFC/10^6 PBMC) ([1]; donor five): 226 SFC/10^6 PBMC
ELISPOT Responses (SFC/10^6 PBMC) ([1]; donor gamma): 202 SFC/10^6 PBMC
ELISPOT Responses (SFC/10^6 PBMC) ([1]; donor three): 189 SFC/10^6 PBMC
ELISPOT Responses (SFC/10^6 PBMC) ([1]; donor twelve): 25 SFC/10^6 PBMC
CTL response [2, 3]: Y
Responding cells (% CD4) (CD4+ T cells; donor twelve): 0.03%
Responding cells (% CD8) (CD8+ T cells; donor twelve): 0%

AVGGAVASV (human cytomegalovirus gB CTL epitope peptide)
MSE (MHC stabilization efficiency) (HLA A2): − (− = 0-50%)
ELISPOT Responses (SFC/10^6 PBMC) ([1]; donor seven): SB(192) SFC/10^6 PBMC
CTL response ([2]; predicted epitopes, Table 3): Y

CSPDEIMAYAQKIFKILDEE
ELISPOT Responses (SFC/10^6 PBMC) ([1]; donor five): CS(1532) SFC/10^6 PBMC
CTL response [2]: Y
Responding cells (% CD4) (CD4+ T cells; donor five): 0.53%
Responding cells (% CD8) (CD8+ T cells; donor five): 0.4%

FEQPTETPPEDLDTLSLAIE (human cytomegalovirus IE2 CTL epitope peptide)
ELISPOT Responses (SFC/10^6 PBMC) ([1]; donor fourteen): RK(791) SFC/10^6 PBMC
CTL response [2, 3]: Y
Responding cells (% CD4) (CD4+ T cells; donor fourteen): 0.2%
Responding cells (% CD8) (CD8+ T cells; donor fourteen): 0.35%

GQTEPIAFV (human cytomegalovirus pp150 CTL epitope peptide)
MSE (MHC stabilization efficiency) (HLA A2): + (+ = 51-99%)
CTL activity of polyclonal CTL line ([2]; donor seven, effector:target ratio 10:1): lower CTL activity

IIKPGKISHIMLDVAFTSHE
ELISPOT Responses (SFC/10^6 PBMC) ([1]; donor eight): JW(370) SFC/10^6 PBMC
ELISPOT Responses (SFC/10^6 PBMC) ([1]; donor epsilon): 691 SFC/10^6 PBMC
ELISPOT Responses (SFC/10^6 PBMC) ([1]; donor gamma): 177 SFC/10^6 PBMC
ELISPOT Responses (SFC/10^6 PBMC) ([1]; donor seven): SB(155), SFC/10^6 PBMC
CTL response [2, 3]: Y
Responding cells (% CD4) (CD4+ T cells; donor eight): 0.04%
Responding cells (% CD4) (CD4+ T cells; donor seven): 0.02%
Responding cells (% CD8) (CD8+ T cells; donor eight): 0.05%
Responding cells (% CD8) (CD8+ T cells; donor seven): 0.03%

IIYTRNHEV (human cytomegalovirus IE2 CTL epitope peptide)
MSE (MHC stabilization efficiency) (HLA A2): + (+ = 51-99%)
ELISPOT Responses (SFC/10^6 PBMC) ([1]; donor delta): SE(137) SFC/10^6 PBMC
ELISPOT Responses (SFC/10^6 PBMC) ([1]; donor fifteen): 80 SFC/10^6 PBMC
ELISPOT Responses (SFC/10^6 PBMC) ([1]; donor seven): 369 SFC/10^6 PBMC
peptide concentration required for half maximal lysis, fold more than NLVPMVATV and VLEETSVML epitopes respectively [2]: 100-500 fold
CTL response ([2]; predicted epitopes, Table 3): Y

IQIIYTRNHEVKSEVDAVRC
ELISPOT Responses (SFC/10^6 PBMC) ([1]; donor delta): 203 SFC/10^6 PBMC
ELISPOT Responses (SFC/10^6 PBMC) ([1]; donor seven): 288 SFC/10^6 PBMC
CTL response [2, 3]: Y
Responding cells (% CD4) (CD4+ T cells; donor delta): 0%
Responding cells (% CD8) (CD8+ T cells; donor delta): 0.19%

MNGQQIFLEVQAIRETVELR
ELISPOT Responses (SFC/10^6 PBMC) ([1]; donor alpha): 277 SFC/10^6 PBMC
ELISPOT Responses (SFC/10^6 PBMC) ([1]; donor two): 2985 SFC/10^6 PBMC
CTL response [2, 3]: Y
Responding cells (% CD4) (CD4+ T cells; donor two): 0.26%
Responding cells (% CD8) (CD8+ T cells; donor two): 0.48%

MQLIPDDYSNTHSTRYVTVK (human cytomegalovirus gB CTL epitope peptide)
ELISPOT Responses (SFC/10^6 PBMC) ([1]; donor four): 238 SFC/10^6 PBMC and 302 SFC/10^6 PBMC
ELISPOT Responses (SFC/10^6 PBMC) ([1]; donor seven): SB(157) SFC/10^6 PBMC
CTL response [2, 3]: Y
Responding cells (% CD4) (CD4+ T cells; donor four): 0.06%
Responding cells (% CD8) (CD8+ T cells; donor four): 0.03%

PQYSEHPTFTSQYRIQGKLE
ELISPOT Responses (SFC/10^6 PBMC) ([1]; donor delta): 980 SFC/10^6 PBMC
ELISPOT Responses (SFC/10^6 PBMC) ([1]; donor four): MB(413) SFC/10^6 PBMC
ELISPOT Responses (SFC/10^6 PBMC) ([1]; donor fourteen): 1393 SFC/10^6 PBMC
CTL response [2]: Y
Responding cells (% CD4) (CD4+ T cells; donor delta): 0%
Responding cells (% CD4) (CD4+ T cells; donor four): 0.05%
Responding cells (% CD4) (CD4+ T cells; donor fourteen): 1.69%
Responding cells (% CD8) (CD8+ T cells; donor delta): 0.87%
Responding cells (% CD8) (CD8+ T cells; donor four): 0%
Responding cells (% CD8) (CD8+ T cells; donor fourteen): 0.96%

QAIRETVELRQYDPVAALFF
ELISPOT Responses (SFC/10^6 PBMC) ([1]; donor alpha): 102 SFC/10^6 PBMC
ELISPOT Responses (SFC/10^6 PBMC) ([1]; donor seven): 241 SFC/10^6 PBMC
ELISPOT Responses (SFC/10^6 PBMC) ([1]; donor two): JD(2593) SFC/10^6 PBMC
CTL response [2, 3]: Y
Responding cells (% CD4) (CD4+ T cells; donor two): 0.28%
Responding cells (% CD8) (CD8+ T cells; donor two): 0.33%
